Assay results taken from ChEMBL document CHEMBL1926527, “Pharmacophore insights into rpoB gene mutations in Mycobacterium tuberculosis rifampicin resistant isolates” (2012).
Values after ≈ are worked out from the molar mass of the structure shown.

What was measured:
Format in all cases: functional
[1] = test system: Mycobacterium tuberculosis; test: Antimycobacterial activity against Mycobacterium tuberculosis isolate 349 expressing rpoB mutant gene by resazurin microtiter assay
[2] = test system: Mycobacterium tuberculosis; test: Antimycobacterial activity against Mycobacterium tuberculosis isolate 343 expressing rpoB Asp516Val mutant gene by resazurin microtiter assay
[3] = test system: Mycobacterium tuberculosis; test: Antimycobacterial activity against multidrug-resistant Mycobacterium tuberculosis clinical isolate obtained from tuberculosis patient infected in BALB/c mouse assessed as decrease in surface area affected by pneumonia in lung at 5 mg/kg, po administered daily for 2 months measured after 2 months; design: scale not given: the % may be the effect or the level left
[4] = test system: Mycobacterium tuberculosis; test: Antimycobacterial activity against Mycobacterium tuberculosis isolate 308 expressing rpoB His526Asp mutant gene by resazurin microtiter assay
[5] = test system: Mycobacterium tuberculosis; test: Antimycobacterial activity against Mycobacterium tuberculosis isolate 364 expressing rpoB Ser522Leu mutant gene by resazurin microtiter assay
[6] = test system: Mycobacterium tuberculosis; test: Antimycobacterial activity against Mycobacterium tuberculosis isolate 80,014 expressing rpoB Arg529Lys and Leu530Met mutant gene by resazurin microtiter assay
[7] = test system: Mycobacterium tuberculosis; test: (§1) Antimycobacterial activity against multidrug-resistant Mycobacterium tuberculosis clinical isolate obtained from tuberculosis patient infected in BALB/c mouse assessed as decrease in bacterial burden in lung at 5 mg/kg, po administered daily for 2 months measured after 2 months; design: scale not given: the % may be the effect or the level left
[8] = test system: Mycobacterium tuberculosis; test: Antimycobacterial activity against Mycobacterium tuberculosis isolate 311 expressing rpoB mutant gene by resazurin microtiter assay
[9] = test system: Mycobacterium tuberculosis; test: Antimycobacterial activity against Mycobacterium tuberculosis isolate 307 expressing rpoB Ser531Leu mutant gene by resazurin microtiter assay
[10] = test system: Mycobacterium tuberculosis; test: Antimycobacterial activity against Mycobacterium tuberculosis isolate 344 expressing rpoB Ser522Leu mutant gene by resazurin microtiter assay
[11] = test system: Mycobacterium tuberculosis; test: Antimycobacterial activity against Mycobacterium tuberculosis isolate 352 expressing rpoB Asp516Leu and Phe514Phe double mutant gene by resazurin microtiter assay
[12] = test system: Mycobacterium tuberculosis; test: as §1, with “after 1 month relative to untreated control” for “after 2 months”
[13] = test system: Mycobacterium tuberculosis; test: Antimycobacterial activity against Mycobacterium tuberculosis isolate 309 expressing rpoB His526Arg mutant gene by resazurin microtiter assay
[14] = test system: Mycobacterium tuberculosis; test: Antimycobacterial activity against Mycobacterium tuberculosis isolate 363 expressing rpoB Asp516Val mutant gene by resazurin microtiter assay

CO[C@H]1/C=C/O[C@@]2(C)Oc3c(C)c(O)c4c(c3C2=O)C2=NC3(CCN(CC(C)C)CC3)N(C(C)=O)C2=C(NC(=O)/C(C)=C\C=C\[C@H](C)[C@H](O)[C@@H](C)[C@@H](O)[C@@H](C)[C@H](OC(C)=O)[C@@H]1C)C4=O
MIC [1]: 2 mg/L (≈ 2.25 µM)
MIC [2]: >2 mg/L
Activity [3]: 30%
MIC [4]: >2 mg/L
MIC [5]: 0.25 mg/L (≈ 0.281 µM)
MIC [6]: 0.25 mg/L (≈ 0.281 µM)
Activity [7]: 50%
MIC [8]: >2 mg/L
MIC [9]: 2 mg/L (≈ 2.25 µM)
MIC [10]: 0.06 mg/L (≈ 0.0675 µM)
MIC [11]: 1 mg/L (≈ 1.12 µM)
fold change (FC) [12]: >3
MIC [13]: 0.25 mg/L (≈ 0.281 µM)
MIC [14]: 0.06 mg/L (≈ 0.0675 µM)

CO[C@H]1/C=C/O[C@@]2(C)Oc3c(C)c(O)c4c(c3C2=O)C2=NC3(CCN(CC(C)C)CC3)NC2=C(NC(=O)/C(C)=C\C=C\[C@H](C)[C@H](O)[C@@H](C)[C@@H](O)[C@@H](C)[C@H](O)[C@@H]1C)C4=O
MIC [1]: >2 mg/L
MIC [2]: >2 mg/L
MIC [4]: >2 mg/L
MIC [5]: >2 mg/L
MIC [6]: 1 mg/L (≈ 1.24 µM)
MIC [8]: >2 mg/L
MIC [9]: >2 mg/L
MIC [10]: 2 mg/L (≈ 2.48 µM)
MIC [11]: 0.12 mg/L (≈ 0.149 µM)
MIC [13]: 0.25 mg/L (≈ 0.311 µM)
MIC [14]: 1 mg/L (≈ 1.24 µM)

CCCCCCCCCCCCCCCC(=O)N1C2=C3NC(=O)/C(C)=C\C=C\[C@H](C)[C@H](O)[C@@H](C)[C@@H](O)[C@@H](C)[C@H](OC(C)=O)[C@H](C)[C@@H](OC)/C=C/O[C@@]4(C)Oc5c(C)c(O)c(c(c5C4=O)C2=NC12CCN(CC(C)C)CC2)C3=O
MIC [1]: >2 mg/L
MIC [2]: >2 mg/L
MIC [4]: >2 mg/L
MIC [5]: >2 mg/L
MIC [6]: 2 mg/L (≈ 1.84 µM)
MIC [8]: >2 mg/L
MIC [9]: >2 mg/L
MIC [10]: >2 mg/L
MIC [11]: >2 mg/L
MIC [13]: >2 mg/L
MIC [14]: >2 mg/L

C=CCCCCCCCCC(=O)N1C2=C3NC(=O)/C(C)=C\C=C\[C@H](C)[C@H](O)[C@@H](C)[C@@H](O)[C@@H](C)[C@H](OC(C)=O)[C@H](C)[C@@H](OC)/C=C/O[C@@]4(C)Oc5c(C)c(O)c(c(c5C4=O)C2=NC12CCN(CC(C)C)CC2)C3=O
MIC [1]: >2 mg/L
MIC [2]: 2 mg/L (≈ 1.97 µM)
Activity [3]: 15%
MIC [4]: >2 mg/L
MIC [5]: 2 mg/L (≈ 1.97 µM)
MIC [6]: 0.5 mg/L (≈ 0.493 µM)
Activity [7]: 50%
MIC [8]: >2 mg/L
MIC [9]: >2 mg/L
MIC [10]: 0.5 mg/L (≈ 0.493 µM)
MIC [11]: 0.25 mg/L (≈ 0.247 µM)
fold change (FC) [12]: >3
MIC [13]: 1 mg/L (≈ 0.987 µM)
MIC [14]: 0.25 mg/L (≈ 0.247 µM)

CO[C@H]1/C=C/O[C@@]2(C)Oc3c(C)c(O)c4c(c3[C@H]2O)C2=NC3(CCN(CC(C)C)CC3)NC2=C(NC(=O)/C(C)=C\C=C\[C@H](C)[C@H](O)[C@@H](C)[C@@H](O)[C@@H](C)[C@H](O)[C@@H]1C)C4=O
MIC [1]: >2 mg/L
MIC [2]: >2 mg/L
MIC [4]: >2 mg/L
MIC [5]: >2 mg/L
MIC [6]: 2 mg/L (≈ 2.48 µM)
MIC [8]: 2 mg/L (≈ 2.48 µM)
MIC [9]: >2 mg/L
MIC [10]: >2 mg/L
MIC [11]: 0.5 mg/L (≈ 0.62 µM)
MIC [13]: 2 mg/L (≈ 2.48 µM)
MIC [14]: >2 mg/L

CO[C@H]1/C=C/O[C@@]2(C)Oc3c(C)c(O)c4c(c3[C@H]2O)C2=NC3(CCN(CC(C)C)CC3)N(C(C)=O)C2=C(NC(=O)/C(C)=C\C=C\[C@H](C)[C@H](O)[C@@H](C)[C@@H](O)[C@@H](C)[C@H](OC(C)=O)[C@@H]1C)C4=O
MIC [1]: >2 mg/L
MIC [2]: >2 mg/L
MIC [4]: >2 mg/L
MIC [5]: >2 mg/L
MIC [6]: 0.5 mg/L (≈ 0.561 µM)
MIC [8]: >2 mg/L
MIC [9]: >2 mg/L
MIC [10]: 0.5 mg/L (≈ 0.561 µM)
MIC [11]: >2 mg/L
MIC [13]: 2 mg/L (≈ 2.24 µM)
MIC [14]: 0.5 mg/L (≈ 0.561 µM)

CO[C@H]1/C=C/O[C@@]2(C)Oc3c(C)c(O)c4c(c3C2=O)C2=NC3(CCN(CC(C)C)CC3)NC2=C(NC(=O)/C(C)=C\C=C\[C@H](C)[C@H](O)[C@@H](C)[C@@H](O)[C@@H](C)[C@H](OC(C)=O)[C@@H]1C)C4=O [RIFABUTIN]
MIC [1]: 1 mg/L (≈ 1.18 µM)
MIC [2]: 1 mg/L (≈ 1.18 µM)
MIC [4]: >2 mg/L
MIC [5]: 0.25 mg/L (≈ 0.295 µM)
MIC [6]: 0.12 mg/L (≈ 0.142 µM)
MIC [8]: 2 mg/L (≈ 2.36 µM)
MIC [9]: 2 mg/L (≈ 2.36 µM)
MIC [10]: 0.06 mg/L (≈ 0.0708 µM)
MIC [11]: <0.06 mg/L
MIC [13]: 0.12 mg/L (≈ 0.142 µM)
MIC [14]: 0.06 mg/L (≈ 0.0708 µM)

CO[C@H]1/C=C/O[C@@]2(C)Oc3c(C)c(O)c4c(O)c(c(/C=N/N5CCN(C)CC5)c(O)c4c3C2=O)NC(=O)/C(C)=C\C=C\[C@H](C)[C@H](O)[C@@H](C)[C@@H](O)[C@@H](C)[C@H](OC(C)=O)[C@@H]1C [RIFAMPIN]
MIC [1]: >2 mg/L
MIC [2]: >2 mg/L
MIC [4]: >2 mg/L
MIC [5]: >2 mg/L
MIC [6]: 2 mg/L (≈ 2.43 µM)
MIC [8]: >2 mg/L
MIC [9]: >2 mg/L
MIC [10]: >2 mg/L
MIC [11]: >2 mg/L
MIC [13]: 0.06 mg/L (≈ 0.0729 µM)
MIC [14]: >2 mg/L
